Data on 19 compounds can be found in US20240043706A1, “ACTIVE ENERGY RAY-CURABLE INKJET INK FOR BEVERAGE CONTAINER, ACTIVE ENERGY RAY-CURABLE INKJET INK SET, AND IMAGE RECORDING METHOD” (FUJIFILM CORPORATION, priority 2021, published 2024).

The first data set in a line: Specific gravity of polymerizable monomer (gravimeter).
Conditions: not given
It is filed as physicochemical. On the procedure: Among these, the polymerizable monomer preferably includes a polymerizable monomer having a specific gravity of 1.0 or less.
In the present disclosure, the specific gravity is measured using a gravimeter, for example, a high precision electronic gravimeter (model number “EW-300SG”, manufactured by Alfa Mirage).
Regarding `C=CC(=O)OCCC(C)CCOC(=O)C=C` [Example 3MPDDA], the Specific gravity was 1.03 g/mL.
Regarding `C=CC(=O)OCCCCCCCCCCOC(=O)C=C` [Decanediol diacrylate], the Specific gravity is 0.968 g/mL.
`C=CC(=O)OCCCCCCCCCCCCCCCCCC` [Stearyl acrylate] had a Specific gravity of 0.86 g/mL.
Take `C=CC(=O)OC1CCCCC1` [Cyclohexyl acrylate]: the Specific gravity came to 0.98 g/mL.
Consider `C=CC(=O)OCCCCCCC(C)C` [Isononyl acrylate], for which the Specific gravity stood at 0.885 g/mL.
Turning to `C=CC(=O)OCCCCCCCCC` [Nonyl acrylate], the Specific gravity was 0.875 g/mL.
Compound `C=CC(=O)O[C@@H]1C[C@H]2CC[C@]1(C)C2(C)C` [Isobornyl acrylate] returned a Specific gravity of 0.987 g/mL.
Consider `C=CC(=O)OCCCCCCCCCCCCCCCC(C)C` [Isostearyl acrylate], for which the Specific gravity is 0.871 g/mL.
Consider `C=CC(=O)OCCCCCCCCCCCC` [Lauryl acrylate], for which the Specific gravity was found to be 0.875 g/mL.
As to Tricyclohexyl acrylate, the Specific gravity came out at 0.93 g/mL.
Same read-out and setting: for `C=CC(=O)OCCCCO` [Example 4-HBA] the value was 1.04 g/mL; for `C=COCCOCCOCCOC=C` [Triethylene glycol divinyl ether], 1.00 g/mL.
Same read-out and setting: under `C=CC(=O)N(C)C` [N,N-Dimethylacrylamide] stands 0.964 g/mL.
Consider `C=CC(=O)NC(C)C` [N-Isopropyl acrylamide], for which the Specific gravity came out at 0.89 g/mL.
The compound `C=CC(=O)OCCCCCCCC(C)C` [Isodecyl acrylate] yielded a Specific gravity of 0.88 g/mL.
`C=CC(=O)OCC1(CC)COCOC1` [CTFA, cyclic trimethylolpropane formal acrylate] gave a Specific gravity of 1.09 g/mL.
`C=CC(=O)OCCOCCOCCOC(=O)C=C` [TEGDA] gave a Specific gravity of 1.05 g/mL.
On the same count and under the same terms, for `C=CC(=O)OCCCCCCCC` [n-Octyl acrylate] the value was 0.894 g/mL; for t-Butylcyclohexyl acrylate, 0.941 g/mL.

Still in this data set, the particulars now being: listed as DDDA.
For `C=CC(=O)OCCCCCCCCCCOC(=O)C=C` [Decanediol diacrylate], the Specific gravity came to 0.97 g/mL.

A further data set can be described thus: Surface tension of surfactant added at 0.5% by mass to CTFA (plate method, 25° C.). It is filed as physicochemical. Particulars: neat CTFA. As to the method: In the present disclosure, the “polymerizable surfactant” refers to a surfactant having a polymerizable group. In the present disclosure, the “surfactant” refers to a compound in which, in a case of adding the compound in an addition amount of 0.5% by mass with respect to cyclic trimethylolpropane formal acrylate (hereinafter, referred to as “CTFA”), a surface tension is reduced 1 mN/m or more. The surface tension is measured by a plate method at 25° C. using a surface tension meter, and for example, can be measured using an automatic surface tension meter (product name “DY-300”) manufactured by Kyowa Interface Science Co., Ltd. A surface tension of CTFA is 36.5 mN/m. […]
With regard to a product in which the content of the surfactant is not 100% by mass (for example, a product containing a solvent other than the surfactant), the content of the surfactant is adjusted to 100% by mass, and the surface tension is measured using the surfactant alone. […]
In Tables 1 to 10, “Polyfunctional monomer/polymerizable surfactant” indicates the mass ratio of the content of the polyfunctional monomer to the content of the polymerizable surfactant. […] The surface tension reduction relative to CTFA was calculated based on the following expression.
With `C=CC(=O)OCC1(CC)COCOC1` [CTFA, cyclic trimethylolpropane formal acrylate], the “Surface tension of CTFA” value was 36.5 mN/m.
